From patent publication US20230141403A1 (Hoffmann-La Roche Inc., priority 2020, published 2023) come the findings set out here.

Where a name gives a salt, the structure may show the parent alone. Read-outs that look alike come from different tables or passages of the source.

This assay concerns Acinetobacter baumannii ATCC17978. Kind of assay: Antimicrobial susceptibility testing: 90% growth inhibitory concentration (IC90) determination. It counts as cell-based. The protocol: Antimicrobial Susceptibility Testing:
90% Growth Inhibitory Concentration (IC90) Determination
The in vitro antimicrobial activity of the compounds was determined according to the following procedure:
The assay used a 10-points Iso-Sensitest broth medium to measure quantitatively the in vitro activity of the compounds against Acinetobacter baumannii ATCC17961 or ATCC17978.
Stock compounds in DMSO were serially twofold diluted (e.g. range from 50 to 0.097 μM final concentration) in 384 wells microtiter plates and inoculated with 49 μl the bacterial suspension in Iso-Sensitest medium to have a final cell concentration of ˜5×10^(5) CFU/ml in a final volume/well of 50 ul/well. Microtiter plates were incubated at 35±2° C.
Bacterial cell growth was determined with the measurement of optical density at λ=600 nm each 20 minutes over a time course of 16h. Growth inhibition was calculated during the logarithmic growth of the bacterial cells with determination of the concentration inhibiting 50% (IC50) and 90% (IC90) of the growth.
Table 1 provides the 90% growth inhibitory concentrations (IC90) in micromoles per liter of the compounds of present invention obtained against the strain Acinetobacter baumannii ATCC17978.

[1] abbreviates: ATCC17978, 90% growth inhibitory concentration, Iso-Sensitest broth, optical density at 600 nm over 16h, 35±2° C., read-out: AB ATCC 17978 IC90.

For `Cc1cc(Nc2nccn3c(-c4ccc(OC(F)F)cc4)cnc23)ccc1N1CCCC1=O` [Example 54, 1-(4-((3-(4-(difluoromethoxy)phenyl)imidazo[1,2-a]pyrazin-8-yl)amino)-2-methylphenyl)pyrrolidin-2-one], the IC90 under setting [1] was 0.72 µM.

As to `CCN1CCN(CC(=O)Nc2ccc(Nc3nccn4c(-c5ccc(OC(F)F)cc5)cnc34)cc2C)CC1` [Example 55, N-(4-((3-(4-(difluoromethoxy)phenyl)imidazo[1,2-a]pyrazin-8-yl)amino)-2-methylphenyl)-2-(4-ethylpiperazin-1-yl)acetamide], the IC90 under setting [1] stood at 0.28 µM. The same measure, in the same setting: to `Cc1cc(Nc2nccn3c(-c4ccc(OC(F)F)c(F)c4)cnc23)ccc1N1CCCC1=O` [Example 56, 1-(4-((3-(4-(difluoromethoxy)-3-fluorophenyl)imidazo [1,2-a]pyrazin-8-yl)amino)-2-methylphenyl)pyrrolidin-2-one] belongs 0.25 µM; to `O=C1CCCN1c1ccc(Nc2nccn3c(-c4ccc(OC(F)F)c(F)c4)cnc23)cc1` [Example 57, 1-(4-((3-(4-(difluoromethoxy)-3-fluorophenyl)imidazo [1,2-a]pyrazin-8-yl)amino)phenyl)pyrrolidin-2-one], 0.14 µM. Same read-out and setting: under `COc1ccc(-c2cnc3c(Nc4ccc(N5CCCC5=O)c(C)c4)nccn23)cc1` [Example 58, 1-(4-((3-(4-methoxyphenyl)imidazo[1,2-a]pyrazin-8-yl)amino)-2-methylphenyl)pyrrolidin-2-one] stands 0.26 µM. Still for that read-out and setting: to `Cc1cc(Nc2nccn3c(-c4ccc(OC(F)F)cc4)cnc23)ccc1NC(=O)CN1CCC(N)C1` (stereo not drawn) [Example 59, 2-(3-aminopyrrolidin-1-yl)-N-(4-((3-(4-(difluoromethoxy)phenyl)imidazo[1,2-a]pyrazin-8-yl)amino)-2-methylphenyl)acetamide] belongs 0.25 µM; to `Cc1cc(Nc2nccn3c(-c4ccc(Cl)cc4)cnc23)ccc1N1CCCC1=O` [Example 60, 1-(4-((3-(4-chlorophenyl)imidazo[1,2-a]pyrazin-8-yl)amino)-2-methylphenyl)pyrrolidin-2-one], 0.76 µM; to `COc1ccc(-c2cnc3c(Nc4ccc(S(=O)(=O)NCCOCCN)c(C)c4)nccn23)cc1` [Example 61, N-(2-(2-aminoethoxy)ethyl)-4-((3-(4-methoxyphenyl)imidazo[1,2-a]pyrazin-8-yl)amino)-2-methylbenzenesulfonamide], 0.73 µM. As to `C#CCOc1ccc(-c2cnc3c(Nc4ccc(NC(C)=O)cc4)nccn23)cc1` [Example 65, N-(4-((3-(4-(prop-2-yn-1-yloxy)phenyl)imidazo[1,2-a]pyrazin-8-yl)amino)phenyl)acetamide], the IC90 under setting [1] came out at 0.75 µM. For `COc1ccc(-c2cnc3c(Nc4ccc(NC(=O)COCCN)c(C)c4)nccn23)cc1` [Example 75, 2-(2-aminoethoxy)-N-(4-((3-(4-methoxyphenyl)imidazo[1,2-a]pyrazin-8-yl)amino)-2-methylphenyl)acetamide hydrochloride], under setting [1], the IC90 is 0.28 µM. The same measure, in the same setting: to `CNC(=O)c1cc(Nc2nccn3c(-c4ccc(OC)cc4)cnc23)ccc1Cl` [Example 76, 2-chloro-5-((3-(4-methoxyphenyl)imidazo[1,2-a]pyrazin-8-yl)amino)-N-methylbenzamide] belongs 0.73 µM; to `COc1ccc(-c2cnc3c(Nc4ccc(S(=O)(=O)N(C)C)cc4)nccn23)cc1` [Example 77, 4-((3-(4-methoxyphenyl)imidazo[1,2-a]pyrazin-8-yl)amino)-N,N-dimethylbenzenesulfonamide], 0.63 µM; to `COc1ccc(-c2cnc3c(Nc4ccc(S(=O)(=O)N5CCOCC5)cc4)nccn23)cc1` [Example 78, 3-(4-methoxyphenyl)-N-(4-(morpholinosulfonyl)phenyl)imidazo[1,2-a]pyrazin-8-amine], 0.58 µM.

With `COc1ccc(-c2cnc3c(Nc4ccc(S(=O)(=O)N5CCN(C)CC5)cc4)nccn23)cc1` [Example 79, 3-(4-methoxyphenyl)-N-(4-((4-methylpiperazin-1 - yl)sulfonyl)phenyl) imidazo[1,2-a]pyrazin-8-amine], the IC90 under setting [1] worked out at 0.85 µM.

Take `CCN(CC)C(=O)CNS(=O)(=O)c1ccc(Nc2nccn3c(-c4ccc(OC)cc4)cnc23)cc1` [Example 80, N,N-diethyl-2-(4-((3-(4-methoxyphenyl)imidazo[1,2-a]pyrazin-8-yl)amino)phenylsulfonamido) acetamide]: the IC90 under setting [1] worked out at 0.76 µM. On the same count and under the same terms, to `COc1ccc(-c2cnc3c(Nc4ccc(S(C)(=O)=O)c(Cl)c4)nccn23)cc1` [Example 81, N-(3-chloro-4-(methylsulfonyl)phenyl)-3-(4-methoxyphenyl) imidazo [1,2-a]pyrazin-8-amine] belongs 0.63 µM. Take `CC(=O)Nc1ccc(Nc2nccn3c(-c4ccc(F)c(F)c4F)cnc23)cc1` [Example 82, N-(4-((3-(2,3,4-trifluorophenyl)imidazo[1,2-a]pyrazin-8-yl)amino)phenyl)acetamide]: the IC90 under setting [1] turned out to be 0.89 µM.

As for `CC(=O)Nc1ccc(Nc2nccn3c(-c4ccc(F)cc4F)cnc23)cc1C` [Example 83, N-(4-((3-(2,4-difluorophenyl)imidazo[1,2-a]pyrazin-8-yl)amino)-2-methylphenyl)acetamide], the IC90 under setting [1] amounted to 0.7 µM. Still for that read-out and setting: to `CC(=O)Nc1ccc(Nc2nccn3c(-c4ccc(Cl)c(F)c4)cnc23)cc1C` [Example 84, N-(4-((3-(4-chloro-3-fluorophenyl)imidazo[1,2-a]pyrazin-8-yl)amino)-2-methylphenyl)] belongs 0.17 µM; to `CC(=O)Nc1ccc(Nc2nccn3c(-c4ccc(F)c(F)c4)cnc23)cc1C` [Example 85, N-(4-((3-(3,4-difluorophenyl)imidazo[1,2-a]pyrazin-8-yl)amino)-2-methylphenyl) acetamide], 0.34 µM. Same read-out and setting: to `COc1ccc(-c2cnc3c(Nc4ccc(NC(C)=O)c(C)c4)nccn23)c(Cl)c1` [Example 86, N-(4-((3-(2-chloro-4-methoxyphenyl)imidazo [1,2-a]pyrazin-8-yl)amino)-2-methylphenyl)acetamide] belongs 0.26 µM; to `CC(=O)Nc1ccc(Nc2nccn3c(-c4ccc(F)c(F)c4F)cnc23)cc1C` [Example 87, N-(2-methyl-4-((3-(2,3,4-trifluorophenyl)imidazo[1,2-a]pyrazin-8-yl)amino)phenyl) acetamide], 0.26 µM; to `CC(=O)Nc1ccc(Nc2nccn3c(-c4ccc(OCC#N)cc4)cnc23)cc1C` [Example 88, N-(4-((3-(4-(cyanomethoxy)phenyl)imidazo[1,2-a]pyrazin-8-yl)amino)-2-methylphenyl) acetamide], 0.33 µM.

In the case of `COc1ccc(-c2cnc3c(Nc4ccc(NC(C)=O)c(C)c4)nccn23)c(F)c1` [Example 89, N-(4-((3-(2-fluoro-4-methoxyphenyl)imidazo [1,2-a]pyrazin-8-yl)amino)-2-methylphenyl) acetamide], the IC90 under setting [1] was 0.28 µM. Turning to `CCCCC(=O)NCCOCC(=O)Nc1ccc(Nc2nccn3c(-c4ccc(OC)cc4)cnc23)cc1C` [Example 90, N-(2-(2-((4-((3-(4-methoxyphenyl)imidazo[1,2-a]pyrazin-8-yl)amino)-2-methylphenyl)amino)-2-oxoethoxy)ethyl)pentanamide], the IC90 under setting [1] came out at 0.24 µM. For the molecule `CNS(=O)(=O)c1ccc(Nc2nccn3c(-c4ccc(OC)c(Cl)c4)cnc23)cc1` [Example 91, 4-((3-(3-chloro-4-methoxyphenyl)imidazo[1,2-a]pyrazin-8-yl)amino)-N-methylbenzenesulfonamide], the IC90 under setting [1] came to 0.81 µM. Still for that read-out and setting: under `CCc1cc(Nc2nccn3c(-c4ccc(OC)c(F)c4F)cnc23)ccc1N` [Example 92, N1-(3-(2,3-difluoro-4-methoxyphenyl)imidazo[1,2-a]pyrazin-8-yl)-3-ethylbenzene-1,4-diamine] stands 0.7 µM.

As for `CCc1cc(Nc2nccn3c(-c4ccc(OC)c(F)c4F)cnc23)ccc1NC(=O)CCN` [Example 93, 3-amino-N-(4-((3-(2,3-difluoro-4-methoxyphenyl)imidazo[1,2-a]pyrazin-8-yl)amino)-2-ethylphenyl)propanamide hydrochloride], the 90% effect concentration (IC90) (ATCC17978, 16 h, read-out: AB ATCC 17978 IC90 (uM)) is 0.18 µM.

`CC1CCC(=O)N1c1ccc(Nc2nccn3c(-c4ccc(OC(F)F)cc4)cnc23)cc1` (stereo not drawn) [Example 95, 1-(4-((3-(4-(difluoromethoxy)phenyl)imidazo[1,2-a]pyrazin-8-yl)amino)phenyl)-5-methylpyrrolidin-2-one]: the IC90 under setting [1] was found to be 0.38 µM. Take `COc1ccc(-c2cnc3c(Nc4ccc(Cn5ccnc5)cc4)nccn23)cc1` [Example 117, N-[4-(imidazol-1-ylmethyl)phenyl]-3-(4-methoxyphenyl)imidazo[1,2-a]pyrazin-8-amine]: the IC90 under setting [1] turned out to be 0.54 µM. Same read-out and setting: to `COc1ccc(-c2cnc3c(Nc4ccc(Cn5ccnc5)c(C)c4)nccn23)cc1` [Example 119, N-[4-(imidazol-1-ylmethyl)-3-methyl-phenyl]-3-(4-methoxyphenyl) imidazo[1,2-a]pyrazin-8-amine] belongs 0.37 µM; to `COc1ccc(-c2cnc3c(Nc4ccc(CO)c(C)c4)nccn23)cc1` [Example 120], 0.74 µM; to `Cc1cc(Nc2nccn3c(-c4ccc(OC(F)F)cc4)cnc23)ccc1CO` [Example 121, (4-((3-(4-(difluoromethoxy)phenyl)imidazo[1,2-a]pyrazin-8-yl)amino)-2-methylphenyl) methanol], 0.67 µM.

A word on the IC90: it is the concentration at which the effect reaches the 90% level.
